Assay results taken from PubChem BioAssay (NCI).
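Compound exposure: 48 hours, 5 concentrations, 96-well plates. Abbreviation: GI50, concentration required for 50% inhibition of growth. Definition used: TGI = concentration required for complete inhibition of growth.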

Experiments:
Experiment in all cases: NCI-60 cell line screen, 48 h
A549 NSCLC = system: A549 NSCLC
CAKI-1 renal = system: CAKI-1 renal
HCT-15 colon = system: HCT-15 colon
LOX IMVI melanoma = system: LOX IMVI melanoma
MALME-3M melanoma = system: MALME-3M melanoma
OVCAR-5 ovarian = system: OVCAR-5 ovarian
RXF 393 renal = system: RXF 393 renal
SK-MEL-2 melanoma = system: SK-MEL-2 melanoma
SK-MEL-28 melanoma = system: SK-MEL-28 melanoma
SK-OV-3 ovarian = system: SK-OV-3 ovarian

`O=C1C(=C([O-])c2ccccc2)C(=O)c2ccccc21.O=C1C(=C([O-])c2ccccc2)C(=O)c2ccccc21.[Ni+2]` gave a GI50 (A549 NSCLC) of 52.5 µM, a TGI (A549 NSCLC) of over 100 µM and a GI50 (CAKI-1 renal) of 33.9 µM. For the same compound, the TGI (CAKI-1 renal) was over 100 µM, the GI50 (HCT-15 colon) was 47.2 µM and the TGI (HCT-15 colon) was over 100 µM. The GI50 (LOX IMVI melanoma) was 34.6 µM, the TGI (LOX IMVI melanoma) was over 100 µM and the GI50 (MALME-3M melanoma) was 75.4 µM. The TGI (MALME-3M melanoma) was over 100 µM, the GI50 (OVCAR-5 ovarian) was 13.4 µM and the TGI (OVCAR-5 ovarian) was over 100 µM. It also gave a GI50 (RXF 393 renal) of 48.8 µM, a TGI (RXF 393 renal) of over 100 µM and a GI50 (SK-MEL-2 melanoma) of 98 µM. The TGI (SK-MEL-2 melanoma) was over 100 µM, the GI50 (SK-MEL-28 melanoma) was 62.2 µM and the TGI (SK-MEL-28 melanoma) was over 100 µM. It also gave a GI50 (SK-OV-3 ovarian) of 23.1 µM and a TGI (SK-OV-3 ovarian) of 98.4 µM.
`COc1cc(O)c(Cc2ccccc2O)c(O)c1C(=O)CCc1ccccc1` was tested, and the TGI (A549 NSCLC) was 21.8 µM, the TGI (CAKI-1 renal) was 13 µM and the TGI (HCT-15 colon) was 19.9 µM. It also gave a TGI (LOX IMVI melanoma) of 22.9 µM, a TGI (MALME-3M melanoma) of 15.8 µM and a TGI (OVCAR-5 ovarian) of 21.8 µM. For the same compound, the TGI (RXF 393 renal) was 18.9 µM, the TGI (SK-MEL-2 melanoma) was 12.8 µM and the TGI (SK-MEL-28 melanoma) was 27.2 µM. The TGI (SK-OV-3 ovarian) was 18.2 µM.
`COC(=O)c1c(O)ccc2c1c1c(n2Cc2cccc(C)c2)C(=O)c2ccccc2C1` gave a TGI (A549 NSCLC) of over 75 µM, a TGI (CAKI-1 renal) of 46.3 µM and a TGI (HCT-15 colon) of over 75 µM. For the same compound, the TGI (LOX IMVI melanoma) was 67.1 µM, the TGI (MALME-3M melanoma) was 69.5 µM and the TGI (OVCAR-5 ovarian) was over 75 µM. The TGI (RXF 393 renal) was 30 µM, the TGI (SK-MEL-2 melanoma) was over 75 µM and the TGI (SK-MEL-28 melanoma) was 0.71 µM. For the same compound, the TGI (SK-OV-3 ovarian) was over 75 µM.
